Tests used:
[1] = system: MM.1S cells; assay: RNA-sequencing of treated MM.1S cells; assay type: cell-based, human
[2] = system: patient-derived MM cells; assay: Ex vivo treatment of patient-derived CD138+ tumor cells, CTG; assay type: cell-based, human; conditions: variable prior therapies
Description: Bone marrow aspirates (1-4 mL) from individuals with MM (newly diagnosed, smoldering, relapsed/refractory, maintenance treatment) or MGUS were collected after patients provided informed consent and based on tissue collection protocol approved by the Dana-Farber Cancer Institute Institutional Review Board. Samples were processed for separation of CD138+ plasma cells, using CD138-positive selection beads, and immunomagnetic separation, as per kit instructions (EasySep, StemCell, Cambridge, Mass.). Patient-derived tumor cells were cultured in RPMI 1640 medium supplemented with L-glutamine (Life Technologies, Carlsbad, Calif., USA), FBS (10%) (Gemini Bioproducts, Woodland, Calif.), 20 I.U./mL penicillin and 20 μg/mL streptomycin (Fisher Scientific, Springfield, N.J., USA) and hIL-6 (Thermo Fisher Scientific, Waltham, Mass., USA […]).
Samples were processed for separation of CD138+ plasma cells, using CD138-positive selection beads, and immunomagnetic separation, as per kit instructions (EasySep, StemCell, Cambridge, Mass.). […] Viability was assessed using CTG, as described (24 h, 48 h, 72 h) and each treatment was repeated up to 3 times (n=3 biological replicates).

Cc1sc2c(c1C)C(c1ccc(Cl)cc1)=N[C@@H](CC(=O)NCCCCCCCCNC(=O)COc1cccc3c1C(=O)N(C1CCC(=O)NC1=O)C3=O)c1nnc(C)n1-2 (stereo partly drawn) [dBET6]
transcriptional profile (RNA-Seq), down-regulated transcripts ([1]; dBET6 0.1 or 0.5 μM vs JQ1 0.5 μM, 4 h): down-regulation of a larger group of transcripts | suppression of c-MYC at transcript level ([1]; dBET6 vs JQ1-treated MM.1S cells): more pronounced suppression of c-MYC | response of patient-derived cells [2]: dose-dependent response

Source: patent publication US20220288051A1, “METHODS FOR TREATING CANCER USING SERIAL ADMINISTRATION OF E3 UBIQUITIN LIGASE DEGRADERS” (Dana-Farber Cancer Institute, Inc., priority 2019, published 2022)
